Test results reported in ChEMBL document CHEMBL5335775, “Bioisosteric replacement of 1H-1,2,3-triazole with 1H-tetrazole ring enhances anti-leukemic activity of (5-benzylthiazol-2-yl)benzamides” (Eur J Med Chem, 2023).
Active and inactive are the calls of the source. The rule behind the calls is not given here.

Key:
[1] = tested on: HCT-15; assay: Inhibition of cell growth in human HCT-15 cells incubated for 48 hrs by SRB assay; type: functional, cell-based; details: HCT-15, 48 h
[2] = tested on: K562; assay: Induction of DNA damage in human K562 cells assessed as tail DNA level at 700 nM incubated for 24 hrs by comet assay (reference value: 0.5 to 0.6 %); type: functional
[3] = tested on: MCF7; assay: Anticancer activity against human MCF7 cells assessed as cell growth at 10^-5 M incubated for 48 hrs by SRB assay relative to control; type: functional; details: MCF7, 48 h, dose 1 10^-5M, read-out: Activity
[4] = tested on: SK-MEL-5; assay: Anticancer activity against human SK-MEL-5 cells assessed as cell growth at 10^-5 M incubated for 48 hrs by SRB assay relative to control; type: functional; details: SK-MEL-5, 48 h, dose 1 10^-5M, read-out: Activity
[5] = tested on: M14; assay: Anticancer activity against human M14 cells assessed as cell growth at 10^-5 M incubated for 48 hrs by SRB assay relative to control; type: functional; details: M14, 48 h, dose 1 10^-5M, read-out: Activity
[6] = tested on: K562; assay: Induction of DNA damage in human K562 cells assessed as fold increase in tail DNA level at 70 to 700 nM incubated for 24 hrs by comet assay relative to control; type: functional; details: dose 70-700 nM
[7] = Antiproliferative activity against human HaCaT cells assessed as inhibition of cell proliferation measured after 72 hrs by MTT assay; type: toxicity, cell-based
[8] = tested on: SW-620; assay: Inhibition of cell growth in human SW-620 cells incubated for 48 hrs by SRB assay; type: functional, cell-based; details: SW-620, 48 h
[9] = tested on: K562; assay: Induction of DNA damage in human K562 cells assessed as fold increase in olive tail moment at 70 to 700 nM incubated for 24 hrs by comet assay relative to control; type: functional; details: dose 70-700 nM
[10] = tested on: K562; assay: Induction of pro-apoptotic morphological changes in human K562 cells assessed as cell shrinkage at 700 nM incubated for 24 hrs by Hoescht-33342 staining based analysis; type: functional
[11] = tested on: UACC-62; assay: Anticancer activity against human UACC-62 cells assessed as cell growth at 10^-5 M incubated for 48 hrs by SRB assay relative to control; type: functional; details: UACC-62, 48 h, dose 1 10^-5M, read-out: Activity
[12] = tested on: NCI-H460; assay: Inhibition of cell growth in human NCI-H460 cells incubated for 48 hrs by SRB assay; type: functional, cell-based; details: NCI-H460, 48 h
[13] = tested on: K562; assay: Induction of pro-apoptotic morphological changes in human K562 cells at 70 nM incubated for 24 hrs by Hoescht-33342 staining based analysis; type: functional, cell-based
[14] = tested on: K562; assay: Induction of pro-apoptotic morphological changes in human K562 cells assessed as nucleus fragmentation at 700 nM incubated for 24 hrs by Hoescht-33342 staining based analysis; type: functional, cell-based
[15] = tested on: K562; assay: Antiproliferative activity against human K562 cells assessed as inhibition of cell proliferation measured after 72 hrs by MTT assay; type: functional, cell-based; details: K562, 72 h
[16] = Selectivity index, ratio of IC50 for […] to IC50 for human K562 cells; type: functional
[17] = tested on: K562; assay: Induction of DNA damage in human K562 cells assessed as olive tail moment level at 70 nM incubated for 24 hrs by comet assay (reference value: 0.2); type: functional
[18] = tested on: T47D; assay: Anticancer activity against human T47D cells assessed as cell growth at 10^-5 M incubated for 48 hrs by SRB assay relative to control; type: functional; details: dose 1 10^-5M, read-out: Activity
[19] = tested on: K562; assay: Induction of DNA damage in human K562 cells assessed as olive tail moment level at 700 nM incubated for 24 hrs by comet assay (reference value: 0.2); type: functional
[20] = tested on: M14; assay: Inhibition of cell growth in human M14 cells incubated for 48 hrs by SRB assay; type: functional, cell-based; details: M14, 48 h
[21] = tested on: SF-295; assay: Anticancer activity against human SF-295 cells assessed as cell growth at 10^-5 M incubated for 48 hrs by SRB assay relative to control; type: functional; details: SF-295, 48 h, dose 1 10^-5M, read-out: Activity
[22] = tested on: K562; assay: Induction of DNA damage in human K562 cells assessed as tail DNA level at 70 nM incubated for 24 hrs by comet assay (reference value: 0.5 to 0.6 %); type: functional
[23] = tested on: K562; assay: Inhibition of cell growth in human K562 cells incubated for 48 hrs by SRB assay; type: functional, cell-based; details: K562, 48 h
[24] = tested on: NCI-H460; assay: Anticancer activity against human NCI-H460 cells assessed as cell growth at 10^-5 M incubated for 48 hrs by SRB assay relative to control; type: functional; details: NCI-H460, 48 h, dose 1 10^-5M, read-out: Activity
[25] = tested on: CAKI-1; assay: Inhibition of cell growth in human CAKI-1 cells incubated for 48 hrs by SRB assay; type: functional, cell-based; details: CAKI-1, 48 h
[26] = tested on: LOX IMVI; assay: Inhibition of cell growth in human LOX IMVI cells incubated for 48 hrs by SRB assay; type: functional, cell-based
[27] = Antiproliferative activity against NIH3T3 cells assessed as inhibition of cell proliferation measured after 72 hrs by MTT assay; type: toxicity, cell-based; details: mouse
[28] = tested on: NCI-H522; assay: Anticancer activity against human NCI-H522 cells assessed as cell growth at 10^-5 M incubated for 48 hrs by SRB assay relative to control; type: functional; details: NCI-H522, 48 h, dose 1 10^-5M, read-out: Activity
[29] = tested on: T47D; assay: Inhibition of cell growth in human T47D cells incubated for 48 hrs by SRB assay; type: functional, cell-based
[30] = tested on: LOX IMVI; assay: Anticancer activity against human LOX IMVI cells assessed as cell growth at 10^-5 M incubated for 48 hrs by SRB assay relative to control; type: functional; details: dose 1 10^-5M, read-out: Activity
[31] = tested on: K562; assay: Induction of pro-apoptotic morphological changes in human K562 cells assessed as formation of apoptotic bodies at 700 nM incubated for 24 hrs by Hoescht-33342 staining based analysis; type: functional, cell-based
[32] = tested on: UACC-257; assay: Anticancer activity against human UACC-257 cells assessed as cell growth at 10^-5 M incubated for 48 hrs by SRB assay relative to control; type: functional; details: UACC-257, 48 h, dose 1 10^-5M, read-out: Activity
[33] = tested on: K562; assay: Induction of pro-apoptotic morphological changes in human K562 cells assessed as formation of cytoplasmic blebs at 700 nM incubated for 24 hrs by Hoescht-33342 staining based analysis; type: functional, cell-based
[34] = tested on: K562; assay: Anticancer activity against human K562 cells assessed as cell growth at 10^-5 M incubated for 48 hrs by SRB assay relative to control; type: functional; details: K562, 48 h, dose 1 10^-5M, read-out: Activity
[35] = tested on: KM12; assay: Inhibition of cell growth in human KM12 cells incubated for 48 hrs by SRB assay; type: functional, cell-based; details: KM12, 48 h
[36] = Antiproliferative activity against J774.2 cells assessed as inhibition of cell proliferation measured after 72 hrs by MTT assay; type: toxicity, cell-based; details: mouse
[37] = tested on: UACC-62; assay: Inhibition of cell growth in human UACC-62 cells incubated for 48 hrs by SRB assay; type: functional, cell-based; details: UACC-62, 48 h

IC50 [1]: 347 nM
IC50 [8]: 118 nM
IC50 [12]: 993 nM
IC50 [15]: 700 nM
IC50 [23]: 56.4 nM
IC50 [29]: 896 nM
Compound: O=C(Nc1ncc(Cc2ccc(F)cc2)s1)c1ccc(-n2cnnn2)cc1
Activity [2]: 5.1%
growth at 10 µM [3]: 34.4%
growth at 10 µM [4]: 10.6%
growth at 10 µM [5]: 34.3%
fold change (FC) [6]: 2
IC50 at 72 h [7]: > 100000 nM
fold change (FC) [9]: 2
Activity [10]: Active
growth at 10 µM [11]: 19.2%
Activity [13]: inactive
Activity [14]: Active
Ratio IC50 [16]: 101
Activity [17]: 0.5
growth at 10 µM [18]: 23.2%
Activity [19]: 1.4
IC50 [20]: 261 nM
growth at 10 µM [21]: 25.9%
Activity [22]: 1.1%
growth at 10 µM [24]: 25.5%
IC50 [25]: 772 nM
IC50 [26]: 206 nM
IC50 at 72 h [27]: > 100000 nM
growth at 10 µM [28]: 36.5%
growth at 10 µM [30]: 26.3%
Activity [31]: Active
growth at 10 µM [32]: 32%
Activity [33]: Active
growth at 10 µM [34]: 23.2%
IC50 [35]: 927 nM
IC50 at 72 h [36]: 70700 nM
IC50 [37]: 56.9 nM
